Laboratory results reported in US20180220646A1, “AMS-Free Adjuvants for Water Conditioning and Agricultural Formulations” (RHODIA OPERATIONS, priority 2017, published 2018).

How the values were obtained:
Test in all cases: Field plot weed control study, % control
Assay type in all cases: in vivo
Details in all cases: adjuvant use rate 1.0% wt/wt with glyphosate baseline
Amaranthus sp. (LIUSS) = system: Amaranthus sp. (LIUSS)
Description: (§1) The efficacy evaluation was conducted by a field plot study with selected weeds. They are Linum sp. (AMSS), Amaranthus sp. (LIUSS), Helianthus sp. (HELSS), and Zea mays (ZEAMX). The field plot size is 400 square feet (10×40 ft), with three replications arranged in a randomized complete block design. Soil description: 15.3% sand, 53.9% silt, and 30.8% clay; Organic material content: 6.2%; pH: 7.5.
(§2) Product application was made using a backpack spray device, Blackout. Operation pressure: 40 psi. Nozzle: TT 11001; Spray volute: 8.5 gallon/acre.
(§3) Environmental condition during application: Air temperature—87 degree F.; Relative humidity—39%; Wind—NE, 5 mph; Soil temperature—71 degree F.; Cloud cover—50%.
(§4) Weeds were evaluated for percent control at 14 days and 28 days following application.
(§5) Sliding rating scale used: 0 indicating no control, up to 100 indicating complete control of weed species as compared to the untreated check.

Zea mays (ZEAMX) = system: Zea mays (ZEAMX)
Description: as §1, §2, §3, §4, §5

Helianthus sp. (HELSS) = system: Helianthus sp. (HELSS)
Description: as §1, §2, §3, §4, §5

Linum sp. (AMSS) = system: Linum sp. (AMSS)
Description: as §1, §2, §3, §4, §5

Molecule	% Control at 14 days LIUSS (Amaranthus sp. (LIUSS))	% Control at 28 days LIUSS (Amaranthus sp. (LIUSS))	% Control at 14 days ZEAMX (Zea mays (ZEAMX))	% Control at 28 days ZEAMX (Zea mays (ZEAMX))	% Control at 14 days HELSS (Helianthus sp. (HELSS))	% Control at 28 days HELSS (Helianthus sp. (HELSS))	% Control at 14 days AMSS (Linum sp. (AMSS))	% Control at 28 days AMSS (Linum sp. (AMSS))
C[N+](C)(C)C.C[N+](C)(C)C.O=S(=O)([O-])[O-] [Tetramethylamine Sulfate]	46.7%	46.7%	56.7%	85%	86.7%	85%	51.7%	58.3%
Choline etidronic acid	76%	80%	65%	66.7%	91.7%	84%	70%	70%
Choline salt of Sulfuric Acid	40%	43.3%	55%	83.3%	88.3%	95%	70%	70%
Choline Citrate	71.7%	86.7%	68.3%	90%	89.3%	95%	61.7%	63.3%
